Source: ChEMBL document CHEMBL5291721, “A preclinical secondary pharmacology resource illuminates target-adverse drug reaction associations of marketed drugs” (Nat Commun, 2023)

Legend:
[1] = target: T1, Alpha-2C adrenergic receptor (Homo sapiens, UniProt P18825); assay type: functional
T1 sequence (P18825 whole entry): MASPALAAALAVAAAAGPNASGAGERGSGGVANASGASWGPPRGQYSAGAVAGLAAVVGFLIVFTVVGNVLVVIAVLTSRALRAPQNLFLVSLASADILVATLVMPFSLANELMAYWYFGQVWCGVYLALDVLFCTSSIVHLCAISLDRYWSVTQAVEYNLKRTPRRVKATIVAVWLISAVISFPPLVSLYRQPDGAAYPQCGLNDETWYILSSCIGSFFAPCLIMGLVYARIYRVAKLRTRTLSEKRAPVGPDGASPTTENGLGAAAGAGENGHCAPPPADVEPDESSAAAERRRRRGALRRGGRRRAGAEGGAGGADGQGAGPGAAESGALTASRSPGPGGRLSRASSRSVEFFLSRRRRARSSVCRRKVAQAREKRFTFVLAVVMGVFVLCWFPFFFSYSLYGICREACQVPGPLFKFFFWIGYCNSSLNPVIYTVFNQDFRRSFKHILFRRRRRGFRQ

D(3) dopamine receptor = D(3) dopamine receptor (Homo sapiens, UniProt P35462)
[2] = target: Growth hormone secretagogue receptor type 1 (Homo sapiens, UniProt Q92847)
[3] = target: T2, Cholecystokinin receptor type A (Homo sapiens, UniProt P32238)
T2 sequence (P32238 whole entry): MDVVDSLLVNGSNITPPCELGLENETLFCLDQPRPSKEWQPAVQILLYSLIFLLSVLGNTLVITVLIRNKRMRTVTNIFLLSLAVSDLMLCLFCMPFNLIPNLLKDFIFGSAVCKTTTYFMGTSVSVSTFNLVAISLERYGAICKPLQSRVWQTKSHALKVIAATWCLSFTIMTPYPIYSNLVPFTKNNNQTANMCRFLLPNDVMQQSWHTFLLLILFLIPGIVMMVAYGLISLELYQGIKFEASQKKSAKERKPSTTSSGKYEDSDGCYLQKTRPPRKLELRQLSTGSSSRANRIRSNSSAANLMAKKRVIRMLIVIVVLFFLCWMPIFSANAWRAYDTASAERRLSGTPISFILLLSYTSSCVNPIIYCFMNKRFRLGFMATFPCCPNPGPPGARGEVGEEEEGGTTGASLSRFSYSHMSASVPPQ

[4] = target: Sodium-dependent dopamine transporter (Homo sapiens, UniProt Q01959)
[5] = target: Beta-1 adrenergic receptor (Homo sapiens, UniProt P08588); assay type: functional
[6] = target: 5-hydroxytryptamine receptor 2B (Homo sapiens, UniProt P41595); assay type: functional, cell-based
[7] = target: Gamma-aminobutyric acid receptor subunit alpha-1 (Rattus norvegicus, UniProt P62813)
Progesterone receptor = target: T3, Progesterone receptor (Homo sapiens, UniProt P06401); assay type: functional
T3 sequence (P06401 whole entry): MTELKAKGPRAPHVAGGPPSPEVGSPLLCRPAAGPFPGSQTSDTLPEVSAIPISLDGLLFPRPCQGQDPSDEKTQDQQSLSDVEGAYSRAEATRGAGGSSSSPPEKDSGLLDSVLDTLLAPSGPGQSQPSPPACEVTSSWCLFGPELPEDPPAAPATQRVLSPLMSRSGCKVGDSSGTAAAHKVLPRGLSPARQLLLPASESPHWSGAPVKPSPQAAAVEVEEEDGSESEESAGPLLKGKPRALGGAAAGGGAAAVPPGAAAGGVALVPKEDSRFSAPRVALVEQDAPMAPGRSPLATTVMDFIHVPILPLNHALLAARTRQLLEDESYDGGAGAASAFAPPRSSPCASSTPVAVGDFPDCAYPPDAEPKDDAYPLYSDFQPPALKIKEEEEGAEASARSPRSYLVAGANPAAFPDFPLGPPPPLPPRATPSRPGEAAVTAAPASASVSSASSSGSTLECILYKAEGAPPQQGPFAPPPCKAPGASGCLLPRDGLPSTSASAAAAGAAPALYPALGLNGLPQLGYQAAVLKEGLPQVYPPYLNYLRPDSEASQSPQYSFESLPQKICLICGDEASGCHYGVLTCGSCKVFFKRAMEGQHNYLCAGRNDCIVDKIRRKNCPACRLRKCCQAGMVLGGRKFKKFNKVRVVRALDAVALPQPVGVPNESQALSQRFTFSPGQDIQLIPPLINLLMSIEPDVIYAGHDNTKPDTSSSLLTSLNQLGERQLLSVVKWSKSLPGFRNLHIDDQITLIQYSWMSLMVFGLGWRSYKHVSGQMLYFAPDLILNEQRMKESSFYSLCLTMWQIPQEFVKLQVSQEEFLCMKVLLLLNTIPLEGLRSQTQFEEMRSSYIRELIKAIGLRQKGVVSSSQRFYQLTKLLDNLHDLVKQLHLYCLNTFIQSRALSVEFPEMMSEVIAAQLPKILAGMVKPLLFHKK

[8] = target: Glutamate receptor ionotropic, NMDA 1 (Rattus norvegicus, UniProt P35439)
[9] = target: Neuronal acetylcholine receptor subunit alpha-4 (Homo sapiens, UniProt P43681)
[10] = target: Kappa-type opioid receptor (Homo sapiens, UniProt P41145)
Cannabinoid receptor 1 = Cannabinoid receptor 1 (Homo sapiens, UniProt P21554); assay type: functional, cell-based
[11] = target: Sodium-dependent noradrenaline transporter (Homo sapiens, UniProt P23975)
Also: assay procedure not described here.

Chain of 5-hydroxytryptamine receptor 2B (P41595 whole entry): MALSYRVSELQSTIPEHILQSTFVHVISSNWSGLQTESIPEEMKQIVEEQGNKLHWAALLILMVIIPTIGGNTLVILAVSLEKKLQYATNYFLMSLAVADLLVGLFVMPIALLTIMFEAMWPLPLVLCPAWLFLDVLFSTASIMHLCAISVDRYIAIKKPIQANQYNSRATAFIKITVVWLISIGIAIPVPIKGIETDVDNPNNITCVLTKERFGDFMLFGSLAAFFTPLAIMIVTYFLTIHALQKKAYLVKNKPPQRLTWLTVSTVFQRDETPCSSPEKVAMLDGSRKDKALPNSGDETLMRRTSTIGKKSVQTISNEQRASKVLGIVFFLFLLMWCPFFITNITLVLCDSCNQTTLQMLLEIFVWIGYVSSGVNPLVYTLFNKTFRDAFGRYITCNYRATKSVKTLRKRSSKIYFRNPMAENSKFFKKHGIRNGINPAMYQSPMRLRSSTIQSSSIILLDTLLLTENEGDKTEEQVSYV
Chain of Gamma-aminobutyric acid receptor subunit alpha-1 (P62813 whole entry): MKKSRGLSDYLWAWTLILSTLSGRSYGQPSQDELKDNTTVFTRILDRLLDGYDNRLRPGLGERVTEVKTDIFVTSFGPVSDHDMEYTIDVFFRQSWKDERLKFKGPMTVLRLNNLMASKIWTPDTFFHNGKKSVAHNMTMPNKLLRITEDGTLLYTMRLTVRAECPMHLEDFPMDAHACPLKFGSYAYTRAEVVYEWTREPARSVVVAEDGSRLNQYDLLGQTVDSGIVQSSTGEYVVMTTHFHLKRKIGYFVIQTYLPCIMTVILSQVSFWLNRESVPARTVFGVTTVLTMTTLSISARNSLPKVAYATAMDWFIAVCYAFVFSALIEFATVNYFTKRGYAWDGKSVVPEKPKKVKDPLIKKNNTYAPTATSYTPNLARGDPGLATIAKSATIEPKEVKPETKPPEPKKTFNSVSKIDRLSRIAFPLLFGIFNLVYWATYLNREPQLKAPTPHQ
Chain of Neuronal acetylcholine receptor subunit alpha-4 (P43681 whole entry): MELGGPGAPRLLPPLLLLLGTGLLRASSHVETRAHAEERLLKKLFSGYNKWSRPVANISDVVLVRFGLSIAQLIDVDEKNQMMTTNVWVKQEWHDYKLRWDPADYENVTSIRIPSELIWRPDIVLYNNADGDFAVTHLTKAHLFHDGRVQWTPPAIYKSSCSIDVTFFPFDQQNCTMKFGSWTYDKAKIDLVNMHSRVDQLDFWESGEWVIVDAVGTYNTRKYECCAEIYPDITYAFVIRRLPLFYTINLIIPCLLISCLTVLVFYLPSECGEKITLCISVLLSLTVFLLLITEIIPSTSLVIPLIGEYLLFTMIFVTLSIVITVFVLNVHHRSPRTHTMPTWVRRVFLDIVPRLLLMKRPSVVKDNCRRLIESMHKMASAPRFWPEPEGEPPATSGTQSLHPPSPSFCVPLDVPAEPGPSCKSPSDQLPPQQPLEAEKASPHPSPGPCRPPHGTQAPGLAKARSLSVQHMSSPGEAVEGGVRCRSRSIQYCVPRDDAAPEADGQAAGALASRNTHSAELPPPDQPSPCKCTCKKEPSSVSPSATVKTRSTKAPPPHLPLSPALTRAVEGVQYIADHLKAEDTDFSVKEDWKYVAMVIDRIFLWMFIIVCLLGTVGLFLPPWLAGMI
Chain of Cannabinoid receptor 1 (P21554 whole entry): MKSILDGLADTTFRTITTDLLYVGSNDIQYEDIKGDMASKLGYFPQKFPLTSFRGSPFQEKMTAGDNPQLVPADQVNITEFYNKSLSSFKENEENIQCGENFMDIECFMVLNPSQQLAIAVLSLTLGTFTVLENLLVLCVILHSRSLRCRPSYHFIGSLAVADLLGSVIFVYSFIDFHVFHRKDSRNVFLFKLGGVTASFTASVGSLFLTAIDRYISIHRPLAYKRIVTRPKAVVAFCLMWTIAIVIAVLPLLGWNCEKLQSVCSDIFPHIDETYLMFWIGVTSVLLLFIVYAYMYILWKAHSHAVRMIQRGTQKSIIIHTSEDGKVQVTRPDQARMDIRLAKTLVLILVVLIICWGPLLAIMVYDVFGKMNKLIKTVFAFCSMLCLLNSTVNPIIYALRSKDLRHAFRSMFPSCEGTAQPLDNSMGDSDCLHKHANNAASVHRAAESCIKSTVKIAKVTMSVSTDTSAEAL
Chain of Sodium-dependent dopamine transporter (Q01959 whole entry): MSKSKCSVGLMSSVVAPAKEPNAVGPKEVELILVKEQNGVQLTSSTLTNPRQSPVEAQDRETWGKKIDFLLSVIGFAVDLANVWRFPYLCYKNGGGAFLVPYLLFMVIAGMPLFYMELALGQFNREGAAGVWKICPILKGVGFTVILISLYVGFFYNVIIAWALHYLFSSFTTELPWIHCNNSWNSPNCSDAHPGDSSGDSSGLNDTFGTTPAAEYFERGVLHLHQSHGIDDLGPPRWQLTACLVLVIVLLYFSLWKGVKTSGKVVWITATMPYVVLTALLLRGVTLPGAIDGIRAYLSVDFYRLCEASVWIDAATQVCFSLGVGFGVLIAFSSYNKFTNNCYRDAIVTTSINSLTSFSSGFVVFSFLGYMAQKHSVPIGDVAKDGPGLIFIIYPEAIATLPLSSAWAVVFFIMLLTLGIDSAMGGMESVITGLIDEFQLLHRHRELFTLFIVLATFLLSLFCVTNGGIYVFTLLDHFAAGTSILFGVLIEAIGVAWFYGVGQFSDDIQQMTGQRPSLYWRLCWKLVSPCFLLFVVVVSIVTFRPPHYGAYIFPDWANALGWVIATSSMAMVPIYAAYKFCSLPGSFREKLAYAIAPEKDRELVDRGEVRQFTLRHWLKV
Chain of D(3) dopamine receptor (P35462 whole entry): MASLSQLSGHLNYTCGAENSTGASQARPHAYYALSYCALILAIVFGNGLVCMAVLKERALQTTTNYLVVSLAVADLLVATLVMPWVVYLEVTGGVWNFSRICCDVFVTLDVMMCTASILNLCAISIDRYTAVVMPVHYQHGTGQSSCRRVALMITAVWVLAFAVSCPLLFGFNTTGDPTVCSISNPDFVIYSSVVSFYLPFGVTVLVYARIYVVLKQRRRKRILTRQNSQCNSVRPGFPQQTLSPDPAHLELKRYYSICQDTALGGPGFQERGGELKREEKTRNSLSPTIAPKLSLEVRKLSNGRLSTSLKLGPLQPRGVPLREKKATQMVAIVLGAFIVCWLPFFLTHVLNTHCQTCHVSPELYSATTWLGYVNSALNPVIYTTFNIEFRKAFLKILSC
Chain of Sodium-dependent noradrenaline transporter (P23975 whole entry): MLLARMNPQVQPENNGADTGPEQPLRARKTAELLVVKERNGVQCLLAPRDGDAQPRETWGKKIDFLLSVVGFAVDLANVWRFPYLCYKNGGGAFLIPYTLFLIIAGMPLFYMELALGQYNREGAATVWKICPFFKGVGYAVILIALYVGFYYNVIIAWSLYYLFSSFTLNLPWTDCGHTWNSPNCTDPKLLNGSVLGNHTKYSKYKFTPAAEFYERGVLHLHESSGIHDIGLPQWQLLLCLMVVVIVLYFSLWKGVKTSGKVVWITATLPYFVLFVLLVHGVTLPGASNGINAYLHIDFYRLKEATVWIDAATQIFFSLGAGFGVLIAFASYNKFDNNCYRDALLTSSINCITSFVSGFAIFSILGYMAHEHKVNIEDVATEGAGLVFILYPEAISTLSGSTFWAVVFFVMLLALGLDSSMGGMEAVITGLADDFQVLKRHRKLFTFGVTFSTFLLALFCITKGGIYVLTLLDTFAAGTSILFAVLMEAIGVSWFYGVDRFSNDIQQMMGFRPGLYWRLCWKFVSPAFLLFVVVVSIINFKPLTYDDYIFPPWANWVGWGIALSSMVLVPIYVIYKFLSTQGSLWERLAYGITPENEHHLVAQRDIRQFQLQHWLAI
Chain of Kappa-type opioid receptor (P41145 whole entry): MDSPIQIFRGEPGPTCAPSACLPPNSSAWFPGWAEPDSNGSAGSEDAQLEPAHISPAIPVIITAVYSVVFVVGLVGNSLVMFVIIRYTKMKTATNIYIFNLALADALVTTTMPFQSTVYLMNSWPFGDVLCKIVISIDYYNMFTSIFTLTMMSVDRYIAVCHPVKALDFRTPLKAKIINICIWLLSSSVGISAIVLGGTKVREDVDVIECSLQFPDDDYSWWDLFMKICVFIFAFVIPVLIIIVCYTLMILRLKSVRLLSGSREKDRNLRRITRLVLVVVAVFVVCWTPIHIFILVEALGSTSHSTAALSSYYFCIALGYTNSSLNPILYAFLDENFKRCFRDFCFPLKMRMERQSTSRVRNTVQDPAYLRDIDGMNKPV
Chain of Growth hormone secretagogue receptor type 1 (Q92847 whole entry): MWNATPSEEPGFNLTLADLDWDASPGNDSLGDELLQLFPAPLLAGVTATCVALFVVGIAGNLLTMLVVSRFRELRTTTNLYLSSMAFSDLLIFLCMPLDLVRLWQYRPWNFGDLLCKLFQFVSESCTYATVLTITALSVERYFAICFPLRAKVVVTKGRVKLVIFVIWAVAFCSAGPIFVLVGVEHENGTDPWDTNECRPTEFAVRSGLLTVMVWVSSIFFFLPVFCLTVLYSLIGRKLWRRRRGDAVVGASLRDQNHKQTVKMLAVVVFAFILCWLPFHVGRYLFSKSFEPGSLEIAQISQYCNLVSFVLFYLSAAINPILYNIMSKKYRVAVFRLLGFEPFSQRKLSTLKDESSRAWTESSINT
Chain of Beta-1 adrenergic receptor (P08588 whole entry): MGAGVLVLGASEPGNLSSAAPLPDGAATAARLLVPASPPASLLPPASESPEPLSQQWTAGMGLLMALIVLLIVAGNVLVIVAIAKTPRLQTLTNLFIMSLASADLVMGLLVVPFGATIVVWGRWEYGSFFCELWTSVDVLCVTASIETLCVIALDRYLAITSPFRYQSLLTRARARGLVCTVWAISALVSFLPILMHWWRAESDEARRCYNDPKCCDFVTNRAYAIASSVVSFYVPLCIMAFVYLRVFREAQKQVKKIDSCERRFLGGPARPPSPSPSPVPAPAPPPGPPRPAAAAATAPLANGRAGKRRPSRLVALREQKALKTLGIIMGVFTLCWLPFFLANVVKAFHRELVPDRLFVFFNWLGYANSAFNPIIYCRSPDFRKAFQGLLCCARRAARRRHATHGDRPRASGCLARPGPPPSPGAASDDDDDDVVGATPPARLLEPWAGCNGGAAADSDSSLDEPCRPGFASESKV

Compound	AC50 [1] [µM]	AC50 (D(3) dopamine receptor) [µM]	AC50 [2] [µM]	AC50 [3] [µM]	AC50 [4] [µM]	AC50 [5] [µM]	AC50 [6] [µM]	AC50 [7] [µM]	AC50 (Progesterone receptor) [µM]	AC50 [8] [µM]	AC50 [9] [µM]	AC50 [10] [µM]	AC50 (Cannabinoid receptor 1) [µM]	AC50 [11] [µM]
COc1ccc(-c2cc(=S)ss2)cc1 [ANETHOLTRITHION]	> 30	> 30	> 30	> 10	10	> 10	> 30	> 30	15	> 30	9.2	> 30	> 30	7.3
C[C@]12CCC(=O)C=C1C=C[C@@H]1[C@@H]2CC[C@@]2(C)[C@H]1CC[C@@]21CCC(=O)O1 [CANRENONE]	> 30	> 30	> 30	> 30	> 30	> 30	> 30	> 30	0.2	> 30	> 30	19	> 30	> 30
CN(C)CCC(O)(c1ccccc1)c1ccccc1Cl (stereo not given) [CHLOPHEDIANOL]	> 10	> 30	> 10	> 10	> 10	> 10	> 10	> 10	> 10	> 10	> 10	7.1	> 30	> 10
C[C@]12C=CC(=O)C=C1C(Cl)=C[C@@H]1[C@@H]2[C@@H](O)C[C@@]2(C)[C@H]1CC[C@]2(O)C(=O)CO [CLOPREDNOL]	> 30	> 30	> 30	> 30	> 30	> 30	> 30	> 30	2.1	> 30	> 30	> 30	> 30	> 30
COc1cccc2c1C(=O)c1c(O)c3c(c(O)c1C2=O)C[C@@](O)(C(=O)CO)C[C@@H]3O[C@H]1C[C@H](N)[C@H](O)[C@H](C)O1 [DOXORUBICIN]	> 30	> 30	> 30	> 30	> 30	> 30	> 10	> 10	> 30	> 10	> 30	> 10	> 30	> 30
C[C@]12CCC(=O)C=C1[C@@H]1C[C@@H]1[C@H]1[C@@H]3[C@@H]4C[C@@H]4[C@@]4(CCC(=O)O4)[C@@]3(C)CC[C@@H]12 [DROSPIRENONE]	> 30	> 30	> 30	> 30	> 30	> 30	26	> 30	–	> 30	> 30	> 30	–	> 30
CC(C)(Oc1ccc(Cl)cc1)C(=O)OCCOC(=O)c1cccnc1 [ETOFIBRATE]	> 30	> 30	> 30	> 30	> 30	> 30	> 30	> 30	> 30	> 30	> 30	> 30	> 30	> 30
CCn1c(=O)c2c(nc(/C=C/c3ccc(OC)c(OC)c3)n2C)n(CC)c1=O [ISTRADEFYLLINE]	> 30	–	–	–	> 30	–	–	–	> 30	–	> 30	–	–	> 30
C[C@]12C=CC(=O)C=C1CC[C@@H]1[C@@H]2[C@@H](O)C[C@@]2(C)[C@H]1CC[C@]2(O)C(=O)CO [PREDNISOLONE]	> 10	> 30	> 30	> 30	> 30	> 10	> 10	> 10	–	> 10	> 10	> 10	> 30	> 30
CCC(=O)c1ccc2c(c1)N(CC(C)N(C)C)c1ccccc1S2 (stereo not given) [PROPIOMAZINE]	4.5	0.53	> 10	> 10	> 10	> 10	> 10	> 10	> 30	> 10	> 10	1.7	–	> 10
Cc1cn(-c2cc(NC(=O)c3ccc(C)c(Nc4nccc(-c5cnccn5)n4)c3)cc(C(F)(F)F)c2)cn1 [RADOTINIB]	> 30	–	–	–	> 30	> 30	–	–	> 30	–	27	–	–	> 30
CN(C)[C@@H]1C(O)=C(C(=O)NCN2CCCC2)C(=O)[C@@]2(O)C(O)=C3C(=O)c4c(O)cccc4[C@@](C)(O)[C@H]3C[C@@H]12 [ROLITETRACYCLINE]	> 10	> 30	> 10	> 10	> 10	> 10	> 10	> 10	> 30	> 10	> 10	> 10	> 30	> 10
Cc1ccc(O)c([C@H](CCN(C(C)C)C(C)C)c2ccccc2)c1 [TOLTERODINE]	> 10	> 10	–	–	> 10	> 10	> 10	> 30	–	> 10	> 10	6.71	> 30	> 10
CC1(C)O[C@@H]2C[C@H]3[C@@H]4CCC5=CC(=O)C=C[C@]5(C)[C@@]4(F)[C@@H](O)C[C@]3(C)[C@]2(C(=O)CO)O1 [TRIAMCINOLONE ACETONIDE]	> 30	> 30	> 30	> 30	> 30	> 30	> 30	> 30	0.02	> 30	> 30	> 30	> 30	–
Oc1cc(Cl)ccc1Oc1ccc(Cl)cc1Cl [TRICLOSAN]	> 30	> 30	> 30	> 30	24	> 30	> 30	> 10	> 30	> 30	> 30	> 30	> 30	0.7
